Experimental data as given in PMC9745799, “Polymyxin Stereochemistry and Its Role in Antibacterial Activity and Outer Membrane Disruption” (ACS Infectious Diseases, 2022).
Positions of bridges follow the written chain, without caps; N, C: chain ends. Non-standard residues stand in square brackets, D forms with d. Residues, ends and D or L forms follow the SMILES beside them. *: point of attachment. dDab = NCC[C@@H](N)C(=O)O; Heptanoyl = CCCCCCC(=O)*

Assays:
Experiment in all cases: NPN uptake assay (outer membrane disruption)
Type in all cases: cell-based
[1] = test system: E. coli ATCC 25922 (smooth LPS); conditions: NPN fluorescence after 1 h at RT, 5 mM HEPES pH 7.2 + 20 mM glucose, triplicates, result in words
Procedure: (§1) Bacteria were taken from glycerol stocks and grown in TSB overnight. Cultures were diluted either 50 or 100 times in Lysogeny Broth (LB) and grown at 37 °C to an OD600 of 0.5. Test compounds were prepared in HEPES buffer (5 mM, pH 7.2 + 20 mM glucose) and serially diluted (25 μL per well) on 1/2 the area of black 96-well plates with a transparent bottom. N-Phenyl-1-naphthylamine (NPN) was dissolved in acetone (0.5 mM) and diluted to 40 μM in HEPES buffer (5 mM, pH 7.2 + 20 mM glucose). 25 μL of the NPN solution was added to each well. The bacterial suspension was spin down (1000g, 10 min), and the remaining cell pellet was resuspended in half the original volume of HEPES buffer (5 mM, pH 7.2 + 20 mM glucose). 50 μL of bacterial suspension was added to each well. NPN fluorescence was measured after 1 h of incubation at RT with λex 355 ± 20 nm and λem 420 ± 20 nm. The measured fluorescence signal was corrected for NPN fluorescence in the absence of compounds (bacteria in buffer + NPN) and presented as relative fluorescence units (RFUs).

[2] = test system: E. coli BW25113 (rough LPS); conditions: NPN fluorescence after 1 h at RT, 5 mM HEPES pH 7.2 + 20 mM glucose, triplicates, result in words
Procedure: as §1

[3] = test system: polymyxin-resistant, mcr-1 positive E. coli; conditions: E. coli mcr-1 positive; NPN fluorescence after 1 h at RT, highest concentration tested 32 μg/mL, triplicates; result in words
Procedure: as §1

CCCCCCC(=O)N[C@H](CCN)C(=O)N[C@@H](C(=O)N[C@H](CCN)C(=O)N[C@@H]1CCNC(=O)[C@@H]([C@H](C)O)NC(=O)[C@@H](CCN)NC(=O)[C@@H](CCN)NC(=O)[C@@H](CC(C)C)NC(=O)[C@H](Cc2ccccc2)NC(=O)[C@@H](CCN)NC1=O)[C@H](C)O [ent-PmxB4] (Heptanoyl-[dDab][dT][dDab][dDab][dDab]F[dL][dDab][dDab][dT]; lactam 4-C) was tested, and the “OM disruption (NPN uptake)” value [1] was “moderate OM disruption”, the “OM disruption (NPN uptake)” value [2] was “moderate OM disruption” and the “OM disruption (NPN uptake)” value [3] was “full NPN uptake albeit at higher concentrations”.
